Test results as given in patent US11331360B2, “Commiphora molmol (myrrh) resin extracts and uses thereof for wound healing and treatment and prevention of mucositis and other diseases” (Umayana LLC, priority 2018, dated 2022).

Test system: oral mucositis
Experiment: Treatment of oral mucositis in cancer subjects (case examples 2-6)
Type: in vivo, human
Conditions: grade IV mucositis, listed agents used with cryotherapy
Procedure: The efficacy and safety of the compositions comprising the disclosed acidic extract of myrrh resin were clinically assessed for prevention, treatment and/or improvement of oral and gastrointestinal mucositis.
In place of prophylactic incubation, the subject began using the composition comprising the disclosed acidic extract of myrrh resin in the form of gel four times a day.
(§1) The subject began using the composition comprising the disclosed acidic extract of myrrh resin in the form of gel four times a day.
G: oral examination performed on the second day of treatment. H: oral examination performed on the third day of treatment. I: oral examination performed on the fourth day of treatment.
as §1
D, E and F: oral examination performed on the first day of treatment. G, H, I and J: oral examination performed on the third day of treatment. K, L and M: oral examination performed on the fifth day of treatment.
B: oral examination performed on the first day of treatment. C: oral examination performed on the second day of treatment. D: oral examination performed on the third day of treatment. E: oral examination performed on the fourth day of treatment.

[1] = Example 2: Hodgkin's Lymphoma, high dose chemotherapy
[2] = Example 4: pancreatic adenocarcinoma, chemotherapy
[3] = Example 5: Larynx CA, induction chemotherapy
[4] = Example 6: larynx malignant neoplasma, radiation therapy

O=C([O-])O.[Na+] [sodium bicarbonate]
effect of earlier treatment of the oral lesions [1]: not effective
effect of earlier treatment of the oral lesions [2]: mild decrease in mucositis
effect of earlier treatment of the oral lesions [3]: mild decrease in mucositis
effect of earlier treatment of the oral lesions [4]: not effective

N=C(NCCCCCCNC(=N)NC(=N)Nc1ccc(Cl)cc1)NC(=N)Nc1ccc(Cl)cc1.O=C(O)[C@H](O)[C@@H](O)[C@H](O)[C@H](O)CO.O=C(O)[C@H](O)[C@@H](O)[C@H](O)[C@H](O)CO [chlorhexidine gluconate]
effect of earlier treatment of the oral lesions [1]: not effective
effect of earlier treatment of the oral lesions [2]: mild decrease in mucositis
effect of earlier treatment of the oral lesions [3]: mild decrease in mucositis
effect of earlier treatment of the oral lesions [4]: not effective
